The record followed here is PMC7048748, “Anxiolytic Drug FGIN-1-27 Ameliorates Autoimmunity by Metabolic Reprogramming of Pathogenic Th17 Cells” (Scientific Reports, 2020).

For assay [1], the system named is reactive oxygen species (ROS). Briefly: Intracellular ROS with DCFDA. It counts as cell-based, mouse. As to conditions: 24-hour post treatment, 5 and 10 µM. The method, then:
Figure 5 FGIN-1-27 induces amino acid starvation response (AAR). (a) MA-plot showing shrunken log2 fold-changes of detected genes between the DMSO and FGIN-1-27 RNA-seq samples, ranked by average normalized count. […] (b) Transcript levels for the indicated genes after 24 hours of treatment with DMSO or FGIN-1-27 quantified by qPCR. The error bars represent SD. (c) Western blot analysis for phosphorylated eIF2α and ATF4 24 hours after treatment with DMSO or FGIN-1-27 (5 and 10 μM). Data are representative of 3 independent experiments. (d) Amino acids in Th17 cells measured 72 hours after treatment with FGIN-1-27. The error bars represent SD. (e) ROS was measured using cell permeant reagent 2',7' -dichlorofluorescin diacetate (DCFDA) at 24 hours following treatment with FGIN-1-27. Filled grey histogram-DMSO, dotted line-FGIN-1-27 (10 μM) and dashed line indicates FGIN-1-27 (5 μM). (f) Dose response plot showing effect of FGIN-1-27 on intracellular IL-17 after pre-treatment with NAC (1 μM). Data are normalized using DMSO treated cells as 100% and the error bars represent SD. Increased amino acid synthesis and transport is characteristic of the amino acid starvation response (AAR)[20]. […] Induction of ATF4 can be an indication of oxidative stress and we measured reactive oxygen species (ROS) using the cell permeant reagent 2',7' -dichlorofluorescin diacetate (DCFDA).

The next assay has as its target T1, TSPO (Rattus norvegicus, UniProt P16257).
T1 construct: Eurofins Cerep (France), contract assay
In words: TSPO (BZDp) antagonist radioligand displacement assay. The assay is classed as binding. An excerpt: We explored the mechanism of action for FGIN-1-27 and whether the effect of FGIN-1-27 on Th17 differentiation was driven by TSPO, the reported target of this compound. We used two approaches: first, we investigated the correlation between FGIN-1-27 induced IL-17 down-regulation and binding to TSPO. For the binding studies, we used a biochemical radio ligand displacement assay with the well-characterized TSPO ligand PK-11195 as a tracer. […] Secondly, we purified CD4^+ T cells from spleen and lymph nodes of mice that lacked global expression of TSPO (TSPO KO mice)[19]. We added FGIN-1-27 to the cultures of CD4^+ T cells from controls or TSPO KO mice that were induced towards the Th17 differentiation program.
FGIN-1-27 were tested at 8 doses (0.3–40 µM) in the TSPO (BZDp) antagonist radioligand displacement assay at Eurofins Cerep (France). Radiolabeled PK11195 was used as a control and TSPO binding was calculated as a percent inhibition of control specific binding using the formula 100-(measured specific binding*100/control specific binding).
(h) Dose response plot showing effect of FGIN-1-27 on intracellular IL-17 and viability in pre- differentiated Th17 cells after re- stimulation. Data is normalized against […]
(i) Mean clinical scores of mice following active induction of EAE. Mice were injected i/p twice daily with vehicle or FGIN-1-27 for 7 days. Data are pooled from 5 mice/group. […]
For orientation: Displacement assays read how much labelled ligand stays bound in the presence of the test substance.

The test system of the next assay is ZAP70. In words: Phospho ZAP70 staining after anti-CD3/CD28 stimulation. The assay is classed as cell-based, mouse. The note with it: 10 μM, 24 hours. The method, then: The following day, cells were treated with either DMSO or of FGIN-1-27 (10 μM). For phospho-ZAP70 analyses, cells were stained after 24 hours of treatment using 10 μg/ml of biotinylated anti-CD3 (145-2C11, BD Biosciences) and anti-CD28 (37.51, BD Biosciences) antibodies on ice for 15 minutes, washed, and stimulated in presence of 20 μg/ml of Streptavidin for 10 minutes at 37 degrees. Cells were then fixed in 2% PFA, permeabilized in Methanol/Acetone and stained with anti-phospho ZAP70 antibody (n3kobu5, eBioscience) and anti-CD4 (RM4-5, eBioscience). For phospho-STAT3 analyses, cells were cultured for additional 24 hours in IL-6 free media, before stimulation with 100 ng/ml of mIL-6 for 30 minutes. Cells were then fixed in 2% PFA, permeabilized in Methanol/Acetone and stained with anti-phospho-STAT3 antibody (4/P-STAT3, BD Biosciences) and anti-CD4. Dead cells were excluded using Live/Dead […] (Thermo Fisher) staining prior to stimulation. page 3: Supplementary Figur es Fig S1 (a) Genomic browser screenshot of Tspo depicting normalized RNA-seq read coverage (RPM) in different T cell subsets. Data were downloaded from NCBI GEO (accession number GSE40918) and processed as in Figure 4A. […] (g) Transcript levels for S ta t3 after 24 hours of treatment with DMSO or FGIN-1-27 quantified by qPCR. […]

T1 sequence (P16257 whole entry): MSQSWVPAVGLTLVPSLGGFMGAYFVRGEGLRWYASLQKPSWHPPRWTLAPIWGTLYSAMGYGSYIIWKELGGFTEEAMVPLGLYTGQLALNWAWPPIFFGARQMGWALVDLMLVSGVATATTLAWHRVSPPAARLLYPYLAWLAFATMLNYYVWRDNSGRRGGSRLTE

Consider `CCCCCCN(CCCCCC)C(=O)Cc1c(-c2ccc(F)cc2)[nH]c2ccccc12` [FGIN-1-27, N, N-di-n-hexyl 2-(4-fluorophenyl) indole-3-acetamide], for which, in assay [1], the “intracellular ROS levels” value was “dose dependent increase”. In addition, on TSPO (0.3 µM, lowest validated testing concentration), the “displacement of PK-11195” value was “more than 90%”. At TSPO (0.3–40 µM), the “binding to TSPO” value is “high affinity”. Further, the “phosphorylation of ZAP70” value in the assay with ZAP70 is on record as “did not phosphorylate ZAP70”.
